Experimental data reported in patent US8143282B2, “Heterocyclic compounds” (S*BIO Pte Ltd., priority 2005, dated 2012).

Tests used:
Colo205 cells = assay: Cell-based proliferation assay for GI50 (CyQUANT), Colo205; conditions: Homo sapiens, COLO 205, 96 h treatment, read-out: Cellular or Growth Inhibition Activity in Colo205 cells, GI50
Procedure: Human colon cancer cell lines (Colo205, HCT116), Ovarian cancer cell line (A2780), Hepatoma cell line (HEP3B), Prostate cancer cell line (PC3) were obtained from ATCC or ECACC. Colo205 cells were cultivated in RPMI 1640 containing 2 mM L-Glutamine, 5% FBS, 1.0 mM Na Pyruvate, 1 U/ml of penicillin and 1 μg of streptomycin. HCT116 cells were cultivated in McCoy's containing RPMI 1640 containing 2 mM L-Glutamine, 5% FBS, 1 U/ml of penicillin and 1 μg of streptomycin. A2780 cells were cultivated in RPMI 1640 containing 2 mM L-Glutamine, 5% FBS, 1 U/ml of penicillin and 1 μg of streptomycin. HEP3B cells were cultivated in EMEM containing 2 mM L-glutamine, 5% FBS, 1% non essential amino acid, 1 mM Na Pyruvate, 1 U/ml of penicillin and 1 μg of streptomycin. PC3 cells were cultivated in F12K, 2 mM L-glutamine, 5% FBS, 1 U/ml of penicillin and 1 μg of streptomycin. PC3, Colo205, and HCT116 cells were seeded in 96-wells plate at 1000, 5000 and 6000 cells per well respectively. A2780 and HEP3B cells were seeded in 96-wells plate at 4000 cells per well respectively. The plates were incubated at 37° C., 5% CO2, for 24 h. Cells were treated with compounds at various concentrations for 96 h. Cell growth was then monitored using CyQUANT® cell proliferation assay (Invitrogen Pte Ltd). Dose response curves were plotted to determine GI50 values for the compounds using XL-fit (ID Business Solution, Emeryville, Calif.). GI50 is defined as the concentration of compound required for 50% inhibition of cell growth.

HDAC1 enzyme = target: T1, HDAC1 enzyme (Homo sapiens, UniProt Q13547); assay: In vitro HDAC assay for determination of IC50 values (BIOMOL fluorescent-based HDAC activity assay); type: biochemical
T1 construct: Amplification of human HDAC1 coding region from this cDNA library was cloned separately into the baculovirus expression pDEST20 vector; made in house; host or cells: SF9 insect cells, pDEST20-HDAC1 baculovirus
T1 sequence (Q13547 whole entry): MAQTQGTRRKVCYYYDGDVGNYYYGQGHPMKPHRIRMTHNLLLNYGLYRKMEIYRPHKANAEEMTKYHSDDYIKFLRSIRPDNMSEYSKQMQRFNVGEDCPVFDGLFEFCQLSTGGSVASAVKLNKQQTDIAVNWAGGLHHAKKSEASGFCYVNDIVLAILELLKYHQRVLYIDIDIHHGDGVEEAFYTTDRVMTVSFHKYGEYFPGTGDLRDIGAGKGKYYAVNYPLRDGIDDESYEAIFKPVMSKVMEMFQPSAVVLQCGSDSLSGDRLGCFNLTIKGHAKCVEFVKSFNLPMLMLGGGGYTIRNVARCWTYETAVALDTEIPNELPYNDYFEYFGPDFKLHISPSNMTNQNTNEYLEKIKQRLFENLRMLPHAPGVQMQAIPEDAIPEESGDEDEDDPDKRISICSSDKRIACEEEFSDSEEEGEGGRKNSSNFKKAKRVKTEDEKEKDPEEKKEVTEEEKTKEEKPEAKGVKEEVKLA
Procedure: Human cDNA library was prepared using cultured SW620 cells. Amplification of human HDAC1 coding region from this cDNA library was cloned separately into the baculovirus expression pDEST20 vector (GATEWAY Cloning Technology, Invitrogen Pte Ltd). The pDEST20-HDAC1 construct was confirmed by DNA sequencing. Recombinant baculovirus was prepared using the Bac-To-Bac method following the manufacturer's instruction (Invitrogen Pte Ltd).
Expression of GST-HDAC1 was done by infecting SF9 cells (Invitrogen Pte Ltd) with pDEST20-HDAC1 baculovirus at MOI=1 for 48 h. Soluble cell lysate was incubated with pre-equilibrated Glutathione Sepharose 4B beads (Amersham) at 4° C. for 2 h. The beads were washed with PBS buffer for 3 times. The GST-HDAC1 protein was eluted by elution buffer containing 50 mM Tris, pH8.0, 150 mM NaCl, 1% Triton X-100 and 10 mM or 20 mM reduced Glutathione. The purified GST-HDAC1 protein was dialyzed with HDAC storage buffer containing 10 mM Tris, pH7.5, 100 mM NaCl and 3 mM MgCl2. 20% Glycerol was added to purified GST-HDAC1 protein before storage at −80° C.
The assay has been carried out in 96 well format and the BIOMOL fluorescent-based HDAC activity assay has been applied. […] Flur de lys Developer was added and the reaction was incubated for 10 min. Briefly, deacetylation of the substrate sensitizes it to the developer, which then generates a fluorophore. The fluorophore is excited with 360 nm light and the emitted light (460 nm) is detected on a fluorometric plate reader (Tecan Ultra Microplate detection system, Tecan Group Ltd.).
The analytical software, Prism 4.0 (GraphPad Software Inc) has been used to generate IC50 from a series of data.

Compound	GI50 (Colo205 cells) [nM]	IC50 (HDAC1 enzyme) [nM]
CCCCc1nc2cc(/C=C/C(=O)NO)ccc2n1CC(C)(C)CN(C)C [Compound 3, 3-[2-Butyl-1-(3-dimethylamino-2,2-dimethyl-propyl)-1H-benzoimidazol-5-yl]-N-hydroxy-acrylamide]	2220	–
CSCCc1nc2cc(/C=C/C(=O)NO)ccc2n1CC(C)(C)CN(C)C [Compound 4, 3-[1-(3-Dimethylamino-2,2-dimethyl-propyl)-2-(2-methylsulfanyl-ethyl)-1H-benzoimidazol-5-yl]-N-hydroxy-acrylamide]	2620	120
CN(C)CC(C)(C)Cn1c(CCC(F)(F)F)nc2cc(/C=C/C(=O)NO)ccc21 [Compound 13, 3-[1-(3-Dimethylamino-2,2-dimethyl-propyl)-2-(3,3,3-trifluoro-propyl)-1H-benzoimidazol-5-yl]-N-hydroxy-acrylamide]	5500	420
CCOCc1nc2cc(/C=C/C(=O)NO)ccc2n1CCN(CC)CC [Compound 15, 3-[1-(2-Diethylamino-ethyl)-2-ethoxymethyl-1H-benzoimidazol-5-yl]-N-hydroxy-acrylamide]	1500	85
CC(C)N(CCn1c(CC(C)(C)C)nc2cc(/C=C/C(=O)NO)ccc21)C(C)C [Compound 20, 3-[1-(2-Diisopropylamino-ethyl)-2-(2,2-dimethyl-propyl)-1H-benzoimidazol-5-yl]-N-hydroxy-acrylamide]	2660	260
CC(C)Cc1nc2cc(/C=C/C(=O)NO)ccc2n1CCN(C(C)C)C(C)C [Compound 21, 3-[1-(2-Diisopropylamino-ethyl)-2-isobutyl-1H-benzoimidazol-5-yl]-N-hydroxy-acrylamide]	2510	380
CN(C)CC(C)(C)Cn1c(C2CCCCC2)nc2cc(/C=C/C(=O)NO)ccc21 [Compound 24, 3-[2-Cyclohexyl-1-(3-dimethylamino-2,2-dimethyl-propyl)-1H-benzoimidazol-5-yl]-N-hydroxy-acrylamide]	2990	510
CN(C)CC(C)(C)Cn1c(C2CC3C=CC2C3)nc2cc(/C=C/C(=O)NO)ccc21 (centres unmarked) [Compound 25, 3-[2-Bicyclo[2.2.1]hept-5-en-2-yl-1-(3-dimethylamino-2,2-dimethyl-propyl)-1H-benzoimidazol-5-yl]-N-hydroxy-acrylamide]	2380	230
CC/C=C\CCc1nc2cc(/C=C/C(=O)NO)ccc2n1CCN(CC)CC [Compound 26, 3-[1-(2-Diethylamino-ethyl)-2-hex-3-enyl-1H-benzoimidazol-5-yl]-N-hydroxy-acrylamide]	370	40
CC/C=C\CCc1nc2cc(/C=C/C(=O)NO)ccc2n1CCN(C(C)C)C(C)C [Compound 27, 3-[1-(2-Diisopropylamino-ethyl)-2-hex-3-enyl-1H-benzoimidazol-5-yl]-N-hydroxy-acrylamide]	1420	230
CC/C=C\CCc1nc2cc(/C=C/C(=O)NO)ccc2n1CCNC(C)C [Compound 28, 3-[2-Hex-3-enyl-1-(2-isopropylamino-ethyl)-1H-benzoimidazol-5-yl]-N-hydroxy-acrylamide]	180	21
CCCCCCc1nc2cc(/C=C/C(=O)NO)ccc2n1CCN(CC)CC [Compound 31, 3-[1-(2-Diethylamino-ethyl)-2-hexyl-1H-benzoimidazol-5-yl]-N-hydroxy-acrylamide]	420	–
CC(C)NCCCn1c(CC(C)(C)C)nc2cc(/C=C/C(=O)NO)ccc21 [Compound 33, 3-[2-(2,2-Dimethyl-propyl)-1-(3-isopropylamino-propyl)-1H-benzoimidazol-5-yl]-N-hydroxy-acrylamide]	2110	230
CC(Cc1nc2cc(/C=C/C(=O)NO)ccc2n1CCN(C(C)C)C(C)C)CC(C)(C)C (centres unmarked) [Compound 38, 3-[1-(2-Diisopropylamino-ethyl)-2-(2,4,4-trimethyl-pentyl)-1H-benzoimidazol-5-yl]-N-hydroxy-acrylamide]	1940	560
CC(Cc1nc2cc(/C=C/C(=O)NO)ccc2n1CCNC(C)C)CC(C)(C)C (centres unmarked) [Compound 39, N-Hydroxy-3-[1-(2-isopropylamino-ethyl)-2-(2,4,4-trimethyl-pentyl)-1H-benzoimidazol-5-yl]-acrylamide]	230	24
O=C(/C=C/c1ccc2c(c1)ncn2C1CCN(CCCc2ccccc2)C1)NO (centres unmarked) [Compound 98, (E)-N-hydroxy-3-(1-(1-(3-phenylpropyl)pyrrolidin-3-yl)-1H-benzo[d]imidazol-5-yl)acrylamide]	–	320

More lines, in order of falling GI50 (Colo205 cells), values ahead:

GI50 (Colo205 cells) [nM]	IC50 (HDAC1 enzyme) [nM]	Compound
4400	880	CC(C)N(CCn1c(CCC(F)(F)F)nc2cc(/C=C/C(=O)NO)ccc21)C(C)C [Compound 34, 3-[1-(2-Diisopropylamino-ethyl)-2-(3,3,3-trifluoro-propyl)-1H-benzoimidazol-5-yl]-N-hydroxy-acrylamide]
2690	180	CC(C)Cc1nc2cc(/C=C/C(=O)NO)ccc2n1CC(C)(C)CN(C)C [Compound 6, 3-[1-(3-Dimethylamino-2,2-dimethyl-propyl)-2-isobutyl-1H-benzoimidazol-5-yl]-N-hydroxy-acrylamide]
2580	170	CCOCc1nc2cc(/C=C/C(=O)NO)ccc2n1CC(C)(C)CN(C)C [Compound 5, 3-[1-(3-Dimethylamino-2,2-dimethyl-propyl)-2-ethoxymethyl-1H-benzoimidazol-5-yl]-N-hydroxy-acrylamide]
1920	130	CC/C=C\CCc1nc2cc(/C=C/C(=O)NO)ccc2n1CCCNC(C)C [Compound 29, 3-[2-Hex-3-enyl-1-(3-isopropylamino-propyl)-1H-benzoimidazol-5-yl]-N-hydroxy-acrylamide]
1870	210	C#CCCc1nc2cc(/C=C/C(=O)NO)ccc2n1CC(C)(C)CN(C)C [Compound 9, 3-[2-But-3-ynyl-1-(3-dimethylamino-2,2-dimethyl-propyl)-1H-benzoimidazol-5-yl]-N-hydroxy-acrylamide]
1770	140	C=CCCc1nc2cc(/C=C/C(=O)NO)ccc2n1CC(C)(C)CN(C)C [Compound 10, 3-[2-But-3-enyl-1-(3-dimethylamino-2,2-dimethyl-propyl)-1H-benzoimidazol-5-yl]-N-hydroxy-acrylamide]
1190	130	CCN(CC)CCn1c(CC(C)(C)C)nc2cc(/C=C/C(=O)NO)ccc21 [Compound 17, 3-[1-(2-Diethylamino-ethyl)-2-(2,2-dimethyl-propyl)-1H-benzoimidazol-5-yl]-N-hydroxy-acrylamide]
1090	91	CCNCCn1c(CC(C)C)nc2cc(/C=C/C(=O)NO)ccc21 [Compound 37, 3-[1-(2-Ethylamino-ethyl)-2-isobutyl-1H-benzoimidazol-5-yl]-N-hydroxy-acrylamide]
860	96	CCNCCn1c(CC(C)(C)C)nc2cc(/C=C/C(=O)NO)ccc21 [Compound 36]
740	60	CC(Cc1nc2cc(/C=C/C(=O)NO)ccc2n1CCCNC(C)C)CC(C)(C)C (centres unmarked) [Compound 32, N-Hydroxy-3-[1-(3-isopropylamino-propyl)-2-(2,4,4-trimethyl-pentyl)-1H-benzoimidazol-5-yl]-acrylamide]
650	–	CCCCc1nc2cc(/C=C/C(=O)NO)ccc2n1CCN(C)C [Compound 57, 3-[2-Butyl-1-(2-dimethylamino-ethyl)-1H-benzoimidazol-5-yl]-N-hydroxy-acrylamide]
